Results published in patent US12290513B2, “Therapeutic methods and compositions for treating movement disorders” (Vima Therapeutics, Inc., priority 2023, dated 2025).
Read-outs that look alike come from different tables or passages of the source.

Key:
[1] = Liver microsome stability, human; conditions: for CLint scaled at 1 μM / microsomal CLint at 1 μM / half-life at 1 μM: liver microsomes; for CLint scaled at 1 μM: Scale-up CLint; for microsomal CLint at 1 μM: in vitro CLint; for half-life at 1 μM: in vitro t1/2, human liver microsomes
Description: (§1) For the liver microsome assay: • 1. The master solution was prepared according to Table 3. All liver microsome samples were purchased from BD Gentest.
(§2) • 2. Two separate experiments were performed as follows: (i) With Cofactors (NADPH): 25 μL of 10 mM NADPH was added to the incubations. […] The reaction was started with the addition of 2.5 μL of 100 μM control compound or test compound solutions. […] Aliquots of 30 μL were taken from the reaction solution at 0.5, 5, 15, 30 and 60 minutes. The reaction was stopped by the addition of 5 volumes of cold acetonitrile with IS (100 nM alprazolam, 200 nM caffeine and 100 nM tolbutamide). Samples were centrifuged at 3,220 g for 40 minutes. Aliquots of 100 μL of the supernatant was mixed with 100 μL of ultra-pure H2O and then used for LC-MS/MS analysis to detect the levels of the test compound. • 5. All calculations were carried out using Microsoft Excel and according to standard analysis methods that are known in the art.

[2] = Liver microsome stability, dog; conditions: for CLint scaled at 1 μM / microsomal CLint at 1 μM / half-life at 1 μM: liver microsomes; for CLint scaled at 1 μM: Scale-up CLint; for microsomal CLint at 1 μM: in vitro CLint; for half-life at 1 μM: in vitro t1/2, dog liver microsomes
Description: as §1, §2

[3] = system: Cerep87 Safety Panel receptors; test: Cerep87 Safety Panel (Eurofins), whole panel statements; format: binding
[4] = Liver microsome stability, rat; conditions: for CLint scaled at 1 μM / microsomal CLint at 1 μM / half-life at 1 μM: liver microsomes; for CLint scaled at 1 μM: Scale-up CLint; for microsomal CLint at 1 μM: in vitro CLint; for half-life at 1 μM: in vitro t1/2, rat liver microsomes
Description: as §1, §2

[5] = Whole blood stability, human
Description: Procedures for blood Stability. • A. 398 μL of blood from each species was added to an incubation plate, which was pre-warmed at 37C for 15 minutes. • B. After the pre-incubation, 2 μL of working solution (test compounds or control compounds) was spiked to 398 μL of blood to reach a final concentration of 1 μM for test compounds and 5 μM for control compounds. The final concentration of organic solvents is 0.5%. The assays were performed in duplicate. • C. The reaction samples were incubated at 37C. • D. Aliquots of 50 μL were taken from the reaction samples at 0, 15, 30, 60 and 120 minutes. The reaction was stopped by the addition of 50 μL ultrapure water and 400 μL cold acetonitrile. • E. All samples were vortexed for 10 minutes, followed by centrifugation at 3,220 g for 40 minutes to precipitate proteins. 100 μL of the supernatant was then transferred to a new plate. The supernatant was diluted with ultrapure water as needed for detection by LC-MS/MS. Sample Analysis
Samples were analyzed by LC-MS/MS to measure the concentration of the test compounds.
All calculations were carried out using Microsoft Excel and according to standard analysis methods that are known in the art.

in vitro = conditions: mouse, liver microsomes
CYP3A5 = CYP3A5 (Homo sapiens, UniProt P20815); test: Incubation with recombinant CYP3A5
CYP1A2 = target: T1, CYP1A2 (Homo sapiens, UniProt P05177); test: Incubation with recombinant CYP1A2
T1 sequence (P05177 1-516): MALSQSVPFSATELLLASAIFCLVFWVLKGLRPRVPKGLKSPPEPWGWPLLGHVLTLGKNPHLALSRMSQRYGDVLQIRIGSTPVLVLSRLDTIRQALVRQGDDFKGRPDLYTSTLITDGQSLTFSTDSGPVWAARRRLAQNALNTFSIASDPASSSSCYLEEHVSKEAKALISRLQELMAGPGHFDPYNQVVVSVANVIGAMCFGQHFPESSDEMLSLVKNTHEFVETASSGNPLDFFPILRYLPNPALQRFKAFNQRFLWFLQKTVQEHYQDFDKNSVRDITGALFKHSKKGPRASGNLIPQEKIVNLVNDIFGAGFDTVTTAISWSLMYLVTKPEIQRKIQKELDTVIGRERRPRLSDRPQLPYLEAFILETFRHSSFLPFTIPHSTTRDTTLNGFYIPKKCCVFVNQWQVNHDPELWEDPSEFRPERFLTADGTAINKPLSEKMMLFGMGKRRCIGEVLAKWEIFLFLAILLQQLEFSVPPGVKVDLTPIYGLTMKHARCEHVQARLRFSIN

[6] = target: D2S (h) (agonist radioligand) (Homo sapiens, UniProt P14416); conditions: at the tested concentration; negative values set to zero
CYP2C19 = CYP2C19 (Homo sapiens, UniProt P33261); test: Incubation with recombinant CYP2C19
CYP2A6 = target: T2, CYP2A6 (Homo sapiens, UniProt P11509); test: Incubation with recombinant CYP2A6; conditions: for t1/2: unit not given
T2 sequence (P11509 1-494): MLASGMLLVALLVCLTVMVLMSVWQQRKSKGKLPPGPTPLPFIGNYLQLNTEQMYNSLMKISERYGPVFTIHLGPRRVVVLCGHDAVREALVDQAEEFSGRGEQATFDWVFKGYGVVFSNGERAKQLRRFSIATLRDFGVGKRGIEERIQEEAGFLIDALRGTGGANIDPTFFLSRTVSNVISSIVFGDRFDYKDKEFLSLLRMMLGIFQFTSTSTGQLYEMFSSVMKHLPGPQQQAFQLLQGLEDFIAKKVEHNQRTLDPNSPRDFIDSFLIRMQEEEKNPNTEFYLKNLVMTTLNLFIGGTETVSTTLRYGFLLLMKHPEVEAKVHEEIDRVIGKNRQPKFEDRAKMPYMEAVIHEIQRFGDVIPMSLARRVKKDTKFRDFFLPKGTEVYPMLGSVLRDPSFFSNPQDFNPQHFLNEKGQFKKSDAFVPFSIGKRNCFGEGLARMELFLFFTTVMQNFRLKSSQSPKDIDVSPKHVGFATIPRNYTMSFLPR

[7] = target: D2L (h) (antagonist radioligand) (Homo sapiens, UniProt P14416); conditions: at the tested concentration; negative values set to zero
[8] = target: M2 (h) (antagonist radioligand) (Homo sapiens, UniProt P08172); conditions: at the tested concentration; negative values set to zero
[9] = human, human liver microsomes, Example 15, Table 20
[10] = dog, dog liver microsomes, Example 15, Table 20
[11] = rat, rat liver microsomes, Example 15, Table 20

Chain of CYP3A5 (P20815 whole entry): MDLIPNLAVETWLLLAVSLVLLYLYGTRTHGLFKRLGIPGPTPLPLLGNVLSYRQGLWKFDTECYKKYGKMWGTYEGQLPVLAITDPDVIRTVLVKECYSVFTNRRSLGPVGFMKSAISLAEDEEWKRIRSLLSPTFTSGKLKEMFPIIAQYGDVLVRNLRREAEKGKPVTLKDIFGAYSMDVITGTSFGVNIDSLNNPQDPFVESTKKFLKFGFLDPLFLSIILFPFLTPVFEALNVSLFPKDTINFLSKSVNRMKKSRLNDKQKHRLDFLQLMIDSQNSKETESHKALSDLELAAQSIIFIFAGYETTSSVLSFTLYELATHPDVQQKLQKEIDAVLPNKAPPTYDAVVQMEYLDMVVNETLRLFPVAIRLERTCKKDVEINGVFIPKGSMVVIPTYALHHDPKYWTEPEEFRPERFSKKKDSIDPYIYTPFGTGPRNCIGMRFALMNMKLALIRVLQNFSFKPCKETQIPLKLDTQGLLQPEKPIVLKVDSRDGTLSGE
Chain of D2S (h) (agonist radioligand) (P14416 1-414 isoform P14416-2): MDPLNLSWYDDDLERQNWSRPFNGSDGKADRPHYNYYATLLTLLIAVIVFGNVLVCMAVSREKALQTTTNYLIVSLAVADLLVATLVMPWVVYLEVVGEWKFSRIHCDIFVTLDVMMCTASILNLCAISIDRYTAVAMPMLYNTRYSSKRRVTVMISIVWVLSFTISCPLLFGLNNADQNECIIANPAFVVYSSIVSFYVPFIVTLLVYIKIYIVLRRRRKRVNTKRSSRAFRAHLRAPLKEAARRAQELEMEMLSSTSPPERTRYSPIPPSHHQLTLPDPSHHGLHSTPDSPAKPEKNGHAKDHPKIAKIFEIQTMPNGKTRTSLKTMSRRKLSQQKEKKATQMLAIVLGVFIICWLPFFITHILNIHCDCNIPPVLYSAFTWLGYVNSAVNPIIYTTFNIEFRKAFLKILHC
Chain of M2 (h) (antagonist radioligand) (P08172 whole entry): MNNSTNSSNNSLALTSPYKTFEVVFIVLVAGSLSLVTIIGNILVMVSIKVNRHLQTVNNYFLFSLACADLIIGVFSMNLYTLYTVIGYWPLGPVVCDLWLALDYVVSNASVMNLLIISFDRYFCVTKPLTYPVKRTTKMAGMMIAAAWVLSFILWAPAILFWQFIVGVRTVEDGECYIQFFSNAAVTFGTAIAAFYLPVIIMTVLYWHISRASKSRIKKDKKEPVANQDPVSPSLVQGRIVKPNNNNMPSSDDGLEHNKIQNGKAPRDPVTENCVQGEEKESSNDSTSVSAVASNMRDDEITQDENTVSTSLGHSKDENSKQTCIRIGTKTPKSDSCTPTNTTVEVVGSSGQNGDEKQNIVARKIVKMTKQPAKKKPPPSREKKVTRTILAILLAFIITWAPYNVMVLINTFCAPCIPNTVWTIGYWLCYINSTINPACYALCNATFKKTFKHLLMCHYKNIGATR
Chain of D2L (h) (antagonist radioligand) (P14416 whole entry): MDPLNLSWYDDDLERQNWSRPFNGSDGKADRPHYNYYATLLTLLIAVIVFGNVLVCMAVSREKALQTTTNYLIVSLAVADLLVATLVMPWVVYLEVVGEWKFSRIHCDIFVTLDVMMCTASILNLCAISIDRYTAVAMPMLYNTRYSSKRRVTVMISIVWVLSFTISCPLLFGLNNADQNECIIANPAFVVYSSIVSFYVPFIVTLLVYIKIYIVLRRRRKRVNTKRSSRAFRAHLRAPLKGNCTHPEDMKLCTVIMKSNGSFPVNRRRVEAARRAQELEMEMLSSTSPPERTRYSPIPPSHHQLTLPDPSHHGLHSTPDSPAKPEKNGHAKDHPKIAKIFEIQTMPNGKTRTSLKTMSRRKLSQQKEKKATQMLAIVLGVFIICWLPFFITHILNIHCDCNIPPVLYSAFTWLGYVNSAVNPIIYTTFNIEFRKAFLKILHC
Chain of CYP2C19 (P33261 whole entry): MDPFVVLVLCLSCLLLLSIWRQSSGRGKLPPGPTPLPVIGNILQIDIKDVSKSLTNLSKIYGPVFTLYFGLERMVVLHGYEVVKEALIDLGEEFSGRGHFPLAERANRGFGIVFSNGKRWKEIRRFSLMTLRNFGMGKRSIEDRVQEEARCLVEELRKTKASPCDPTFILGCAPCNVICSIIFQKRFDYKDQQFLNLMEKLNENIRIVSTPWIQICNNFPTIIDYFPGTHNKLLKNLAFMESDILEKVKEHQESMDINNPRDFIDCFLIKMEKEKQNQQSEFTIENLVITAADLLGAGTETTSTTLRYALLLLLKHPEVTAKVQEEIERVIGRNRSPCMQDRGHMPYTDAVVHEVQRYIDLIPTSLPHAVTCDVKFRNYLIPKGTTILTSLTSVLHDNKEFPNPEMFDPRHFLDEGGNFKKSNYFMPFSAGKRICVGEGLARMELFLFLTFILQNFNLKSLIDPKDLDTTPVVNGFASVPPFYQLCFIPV

Row | Compound | Remaining Percentages (%) 0 min ([5]; human whole blood, 37C) [%] | CLint scaled (in vitro) [mL/min/kg] | half-life at 1 μM (in vitro) [min] | microsomal CLint at 1 μM (in vitro) [µL/min/mg] | Substrates of CYP3A5 (CYP3A5) | CLint scaled at 1 μM [1, 9] [mL/min/kg] | microsomal CLint at 1 μM [1, 9] [µL/min/mg] | half-life at 1 μM ([1]; human, Example 15, Table 20) [min] | CLint (CYP1A2) [µL/min/pmol] | Substrates of CYP1A2 (CYP1A2) | CLint scaled at 1 μM [2, 10] [mL/min/kg] | microsomal CLint at 1 μM [2, 10] [µL/min/mg] | half-life at 1 μM ([2]; dog, Example 15, Table 20) [min] | signal, D2S (h) (agonist radioligand) [6] [%] | CLint scaled at 1 μM [4, 11] [mL/min/kg] | microsomal CLint at 1 μM [4, 11] [µL/min/mg] | half-life at 1 μM ([4]; rat, Example 15, Table 20) [min] | Substrates of CYP2C19 (CYP2C19) | CLint (CYP2A6) [µL/min/pmol] | t1/2 (CYP2A6) | other results
1 | C[C@@H](C[N+](C)(C)C)OC(N)=O.[Cl-] [(S)-BTC, (S)-bethanechol] | 100.00 | – | – | – | – | – | – | – | – | – | – | – | – | – | – | – | – | – | – | – | Predicted Hepatic CLH ([1]; human liver microsomes, Table 5): 0.00 mL/min/kg; in vitro t1/2 ([1]; human, microsomes): ∞; Predicted Hepatic CLH ([2]; dog liver microsomes, Table 5): 0.00 mL/min/kg; in vitro t1/2 ([2]; dog, microsomes): ∞; antagonism at muscarinic receptors of the panel ([3]; only muscarinic receptors): greater than 50%; Predicted Hepatic CLH ([4]; rat liver microsomes, Table 5): 0.00 mL/min/kg; in vitro t1/2 ([4]; rat, microsomes): ∞; t1/2 ([5]; human, blood): ∞
2 | O[C@](CCN1CCCCC1)(c1ccccc1)C1CCCCC1 [(S)-THP, (S)-trihexyphenidyl] | – | 1030 | 5.56 | 249 | Rac, R and S | 58.9 | 57.3 | 24.2 | 0.20 | is metabolized | 429 | 244 | 5.72 | 35.79 | 1870 | 768 | 1.8 | Rac, R and S | 0.00 | ∞ | half-life (CYP3A5; human): 48.7 min; half-life (CYP1A2; human): 34.6 min; Substrates of CYP1A2 (CYP1A2; listed as S): S and Rac; non-muscarinic receptors signaled through ([3]; greater than 25% signal): nine; signal, D2L (h) (antagonist radioligand) [7]: 28.50%; signal, M2 (h) (antagonist radioligand) [8]: 77.76%
3 | O[C@@](CCN1CCCCC1)(c1ccccc1)C1CCCCC1 [(R)-THP, (R)-trihexyphenidyl] | 100.00 | 2030 | 2.82 | 492 | Rac, R and S | 20.4 | 19.9 | 69.7 | 0.00 | not metabolized | 318 | 180 | 7.69 | 0.23 | 5330 | 2190 | 0.63 | Rac, R and S | 0.00 | ∞ | CLint scaled at 1 μM ([1]; human, human liver microsomes, Table 5): 21.8 mL/min/kg; microsomal CLint at 1 μM ([1]; human, human liver microsomes, with NADPH, Table 5): 21.2 µL/min/mg; half-life at 1 μM ([1]; human, with NADPH, 1 μM, Table 5): 65.8 min; Substrates of CYP1A2 (CYP1A2; listed as R): no R; CLint scaled at 1 μM ([2]; dog, dog liver microsomes, Table 5): 257 mL/min/kg; microsomal CLint at 1 μM ([2]; dog, dog liver microsomes, with NADPH, Table 5): 146 µL/min/mg; half-life at 1 μM ([2]; dog, with NADPH, 1 μM, Table 5): 9.51 min; CLint scaled at 1 μM ([4]; rat, rat liver microsomes, Table 5): 5810 mL/min/kg; microsomal CLint at 1 μM ([4]; rat, rat liver microsomes, with NADPH, Table 5): 2380 µL/min/mg; half-life at 1 μM ([4]; rat, with NADPH, 1 μM, Table 5): 0.58 min; t1/2 ([5]; human whole blood, 37C): ∞; signal, D2L (h) (antagonist radioligand) [7]: 0.32%; signal, M2 (h) (antagonist radioligand) [8]: 98.95%
